In ChEMBL document CHEMBL1130230, “1,4-disubstituted anthracene antitumor agents” (J Med Chem, 1997):

Columns and labels:
Assay type in all cases: functional, cell-based
A549 [1] = test: Compound was tested for potency against human lung A549 cells using sulforhodamine B assay.
L1210 [2] = test: Compound was tested for potency against multi drug resistant murine leukemia L1210 cells.; settings: Mus musculus
SW480 [3] = test: Compound was tested for potency against human colon carcinoma SW 480 cells in a sulforhodamine B assay.
L1210 [4] = test: Compound was tested for potency against multidrug-resistant murine leukemia L1210 cells; settings: Mus musculus
WiDr = test: Compound was tested for potency against human colon carcinoma WiDr cells in a sulforhodamine B assay.
RPMI-8226 [5] = test: Compound was tested for potency against human myeloma 8226 cells using MTT assay method.
RPMI-8226 [6] = test: Compound was tested for potency against human myeloma 8226 cells (40 fold resistant to doxorubicin).
SW480 [7] = test: Compound was tested for potency against human colon carcinoma SW 480 cells in a sulforhodamine B assay; UA=Potency was so low that the IC50 was unachievable.
A549 [8] = test: Compound was tested for potency against human lung A549 cells using sulforhodamine B assay; UA=Potency was so low that the IC50 was unachievable.

| Structure (SMILES) | IC50 (A549 [1]) [µM] | IC50 (L1210 [2]) [µM] | IC50 (SW480 [3]) [µM] | IC50 (L1210 [4]) [µM] | IC50 (WiDr) [µM] | IC50 (RPMI-8226 [5]) [µM] | IC50 (RPMI-8226 [6]) [µM] | IC50 (SW480 [7]) | IC50 (A549 [8]) |
| --- | --- | --- | --- | --- | --- | --- | --- | --- | --- |
| C(=N\NC1=NCCN1)/c1c2ccccc2c(/C=N/NC2=NCCN2)c2ccccc12 [BISANTRENE] | 0.017 | 3.2 | 0.09 | 0.049 | 0.79 | 0.018 | 9.1 |  |  |
| CN(C)CCNCc1ccc(CBr)c2cc3ccccc3cc12 | 91 | 188 |  | 52 | 15 | 12 | 4 | Unachievable |  |
| CN(C)CCNC(=O)c1ccc(C(=O)NCCN(C)C)c2c1C(=O)c1ccccc1C2=O |  | 73 |  | 63 | 4.5 | > 10 | 5 | Unachievable | Unachievable |
| CN(C)CCNC(=O)c1c2ccccc2c(C(=O)NCCN(C)C)c2ccccc12 | 99 | 140 | 44 | 44 | 26 | > 10 | > 10 |  |  |

Continued by falling IC50 (L1210 [2]), values first:

| IC50 (A549 [1]) [µM] | IC50 (L1210 [2]) [µM] | IC50 (SW480 [3]) [µM] | IC50 (L1210 [4]) [µM] | IC50 (WiDr) [µM] | IC50 (RPMI-8226 [5]) [µM] | IC50 (RPMI-8226 [6]) [µM] | IC50 (SW480 [7]) | IC50 (A549 [8]) | Structure (SMILES) |
| --- | --- | --- | --- | --- | --- | --- | --- | --- | --- |
| 0.71 | 29 | 3.2 | 4.2 | 1.4 | 3.3 | 5 |  |  | CN(C)CCNC(=O)c1ccc(C(=O)NCCN(C)C)c2cc3ccccc3cc12 |
| 5 | 13 | 0.72 | 2.6 | 1.6 | 5.6 | 6.7 |  |  | C(=N\NC1=NCCN1)/c1ccc(/C=N/NC2=NCCN2)c2cc3ccccc3cc12 |
| 8.1 | 8.3 | 19 | 2.8 | 17 | 7 | 4 |  |  | CN(C)CCNCc1ccc(CNCCN(C)C)c2cc3ccccc3cc12 |
| 5 | 3.6 | 5 | 3.3 | 4 | 3 | 3 |  |  | CN(C)CCNCc1c2ccccc2c(CNCCN(C)C)c2ccccc12 |
